Consider 14 molecules from ChEMBL document CHEMBL1149710, “Two new alkaloids and active anti-hepatitis B virus constituents from Hypserpa nitida” (Bioorg Med Chem Lett, 2007).

Assay [1] in a line: Selectivity index, ratio of CC50 for human Hep G2.2.15 cells to IC50 for HBV e antigen secretion in HBV transfected Hep G2.2.15 cells. In kind it is functional.
Assay [2] can be described thus: Cytotoxicity against human Hep G2.2.15 cells. Type of assay: functional. The settings on record: HepG2 2.2.15.
Assay [3] deals with Hepatitis B virus. Kind of assay: Antiviral activity against HBV transfected Hep G2.2.15 cells assessed as inhibition of surface antigen HBsAg secretion. The settings on record: HepG2 2.2.15. In kind it is functional, organism-based.
Assay [4] relates to Hepatitis B virus. The experiment in a line: Antiviral activity against HBV transfected Hep G2.2.15 cells assessed as inhibition of e antigen HBsAg secretion. The settings on record: HepG2 2.2.15. In kind it is functional, organism-based.
The nature of assay [5]: Selectivity index, ratio of CC50 for human Hep G2.2.15 cells to IC50 for surface antigen HBsAg secretion in HBV transfected Hep G2.2.15 cells. In kind it is functional.

For the molecule `COc1cc2c3c(c1OC)C1(C=CC(=O)C=C1)C[C@H]3N(C)CC2` [PRONUCIFERINE], the “Ratio CC50/IC50” value in assay [1] is given as under 1; in assay [5], 1.19. Moreover, the CC50 in assay [2] was found to be 50 µM. Further, the values for the IC50 with Hepatitis B virus [3] and in the assay with Hepatitis B virus [4] were 42 µM and over 4180 µM, respectively.
For `COC1=CC(=O)[C@@]2([C@@H]1O)[C@@H](Cl)C[C@]13NCC[C@]21CC(=O)C(OC)=C3OC` [ACUTUMIDINE], the CC50 in assay [2] is over 2890 µM. Moreover, the IC50 was 2020 µM in the assay on Hepatitis B virus [3] and over 2890 µM in the assay with Hepatitis B virus [4]. Also, the “Ratio CC50/IC50” value in assay [5] is over 1.31.
Molecule `COC1=CC(=O)[C@]2(CC[C@@]34C(OC)=C(OC)C(=O)C[C@]32CCN4C)[C@@H]1O` [DECHLOROACUTUMINE] had a CC50 in assay [2] of 2930 µM. The IC50 in the assay with Hepatitis B virus [3] and in the assay on Hepatitis B virus [4] was over 2930 µM throughout.
Molecule `COC1=CC(=O)[C@@]2([C@@H]1O)[C@@H](Cl)C[C@@]13C(OC)=C(OC)C(=O)C[C@@]21CCN3C` [ACUTUMINE] gave a CC50 in assay [2] of over 2990 µM. The IC50 was over 2990 µM in the assay with Hepatitis B virus [3] and over 2980 µM in the assay on Hepatitis B virus [4].
Regarding `COc1c(O)cc2c(c1OC)C=[N+](C)CC2` [PHENOLBETAIN], the “Ratio CC50/IC50” value in assay [1] and in assay [5] was under 1 each time. This molecule displayed a CC50 in assay [2] of 2180 µM. The half-maximal inhibitory concentration (IC50) was 2370 µM in the assay on Hepatitis B virus [3] and over 4520 µM with Hepatitis B virus [4].
In assay [2], `COc1cc2c(cc1O)C[C@H]1c3c(cc(OC)c(O)c3-2)CC[N+]1(C)C` [LAURIFOLINE] had a CC50 of over 3680 µM. Further, the IC50 with Hepatitis B virus [3] and with Hepatitis B virus [4] was over 3680 µM throughout.
Turning to `COc1ccc(C[C@H]2c3cc(O)c(OC)cc3CCN2C)cc1O` [(S)-RETICULINE], the “Ratio CC50/IC50” value in assay [1] and in assay [5] was under 1 each time. Also, in assay [2], half-maximal cytotoxicity (CC50) was put at 1910 µM. The IC50 in the assay with Hepatitis B virus [3] is 2140 µM; in the assay with Hepatitis B virus [4], over 2990 µM.
As to `COC1=CC(=O)[C@]2([C@@H](Cl)C[C@]34NCC[C@]23CC(=O)C(OC)=C4OC)[C@H]1O` [DAURICUMIDINE], the “Ratio CC50/IC50” value in assay [1] is recorded as under 1; in assay [5] it was 4.13. This molecule also displayed a CC50 in assay [2] of 1860 µM. The values for the IC50 in the assay with Hepatitis B virus [3] and in the assay on Hepatitis B virus [4] were 450 µM and over 3850 µM, respectively.
For `COc1ccc2c3c1-c1c(ccc(O)c1O)C[C@@H]3[N+](C)(C)CC2` [HYPSERPANINE B], in assay [2], the CC50 was over 3620 µM. Besides, the IC50 in the assay with Hepatitis B virus [3] and in the assay with Hepatitis B virus [4] was over 3620 µM in each case.
`COc1ccc2c(c1O)-c1c(O)c(OC)cc3c1[C@H](C2)[N+](C)(C)CC3` [MAGNOFLORINE]: the CC50 in assay [2] is over 4110 µM. Also, the IC50 in the assay with Hepatitis B virus [3] and in the assay with Hepatitis B virus [4] was over 4110 µM in each case.
As for `Nc1ccn([C@@H]2CS[C@H](CO)O2)c(=O)n1` [LAMIVUDINE], the results for the “Ratio CC50/IC50” value in assay [1] and in assay [5] were 1.16 and 2.56, respectively. In addition, the midpoint of cytotoxicity in assay [2], the CC50, lay at 30000 µM. The IC50 with Hepatitis B virus [3] is 11700 µM; in the assay with Hepatitis B virus [4], 25900 µM.
Regarding `COc1cc2c3c(c1O)C1(C=CC(=O)C=C1)CC3N(C)CC2` (centres undefined) [GLAZIOVINE], the “Ratio CC50/IC50” value in assay [1] and in assay [5] was under 1 each time. The same molecule yielded a CC50 in assay [2] of 7 µM. The IC50 was found to be 8 µM in the assay on Hepatitis B virus [3] and 3690 µM in the assay on Hepatitis B virus [4].
As to `CCN(CC)C1=CC(=O)[C@]2([C@@H](Cl)C[C@@]34C(OC)=C(OC)C(=O)C[C@@]23CCN4C)[C@H]1O` [HYPSERPANINE A], the results for the “Ratio CC50/IC50” value in assay [1] and in assay [5] were under 1 and 1.57, respectively. Also, the midpoint of cytotoxicity in assay [2], the CC50, lay at 2230 µM. In addition, the 50% inhibitory concentration (IC50) with Hepatitis B virus [3] was 1420 µM; in the assay on Hepatitis B virus [4], over 2870 µM.
On the same counts, the results for `COC1=CC(=O)[C@]2([C@@H](Cl)C[C@@]34C(OC)=C(OC)C(=O)C[C@@]23CCN4C)[C@H]1O` [DAURICUMINE] are under 1, 1.67, 2190 µM, 1310 µM and over 3290 µM.
